These results are taken from the supplement of paper PMC6045584.

± gives the standard deviation of the averaged measurements.

Compound in one experiment: CN(C)C/C=C/C(=O)Nc1cc2c(Nc3ccc(F)c(Cl)c3)ncnc2cc1O[C@H]1CCOC1 [AFATINIB]
In words: surviving fraction relative to DMSO-only wells; higher = less growth inhibition. Particulars: exposure time: 5 days. The gist of the method:
(§1)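 Lines were retained only if, across three screens, replicate Pearson r was >0.7 and median Z' was >0.3. Viability was measured as CellTiter-Glo luminescence and reported as surviving fraction relative to the median of DMSO-only wells. Readings followed 10 minutes at room temperature, after log-phase tumour cells seeded at 250–500 per well in 384-well plates had been exposed, from 24 hours after seeding, continuously for five days to inhibitors at 0.5, 1, 5, 10, 50, 100, 500 and 1000 nM.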

Compound in another experiment: Nc1nc2[nH]cnc2c(=S)[nH]1 [TIOGUANINE]
The description is as above. Particulars: exposure time: 5 days. The gist of the method: as §1

As to 22RV1 PROSTATE, the surviving fraction with AFATINIB (0.5 nM) is 1.03 ± 0.098; with AFATINIB (1 nM) it was 1.05 ± 0.063; with AFATINIB (5 nM) it was 1.01 ± 0.037; in the experiment with AFATINIB (10 nM), 0.977 ± 0.087; in the experiment with AFATINIB (50 nM), 0.984 ± 0.052; with AFATINIB (100 nM) it was 0.916 ± 0.028. The surviving fraction with AFATINIB (500 nM) came out at 0.737 ± 0.057; with AFATINIB (1000 nM), 0.515 ± 0.065; with TIOGUANINE (0.5 nM), 0.97 ± 0.042; with TIOGUANINE (1 nM), 0.971 ± 0.042; with TIOGUANINE (5 nM), 0.99 ± 0.049; with TIOGUANINE (10 nM), 0.999 ± 0.0061. Also, the surviving fraction with TIOGUANINE (50 nM) came to 1.06 ± 0.067; with TIOGUANINE (100 nM), 0.99 ± 0.039; in the experiment with TIOGUANINE (500 nM) it was 0.988 ± 0.079; with TIOGUANINE (1000 nM), 0.94 ± 0.042.
As for SG28 HEADNECK, the surviving fraction with AFATINIB (0.5 nM) is 0.907 ± 0.056; with AFATINIB (1 nM), 0.828 ± 0.089; with AFATINIB (5 nM), 0.669 ± 0.083; in the experiment with AFATINIB (10 nM), 0.523 ± 0.056; in the experiment with AFATINIB (50 nM), 0.441 ± 0.052; with AFATINIB (100 nM) it was 0.452 ± 0.057. The surviving fraction with AFATINIB (500 nM) came out at 0.342 ± 0.029; with AFATINIB (1000 nM) it was 0.259 ± 0.035; in the experiment with TIOGUANINE (0.5 nM) it was 1.07 ± 0.045; in the experiment with TIOGUANINE (1 nM), 1.05 ± 0.14; with TIOGUANINE (5 nM) it was 1.01 ± 0.14; with TIOGUANINE (10 nM) it was 0.994 ± 0.076. The surviving fraction was determined as 1.06 ± 0.089 in the experiment with TIOGUANINE (50 nM), 1.05 ± 0.12 with TIOGUANINE (100 nM), 1.02 ± 0.038 in the experiment with TIOGUANINE (500 nM) and 1.14 ± 0.082 in the experiment with TIOGUANINE (1000 nM).
For the test system OS25HAL BONE, the surviving fraction with AFATINIB (0.5 nM) was 0.966 ± 0.014; with AFATINIB (1 nM) it was 1.01 ± 0.018; with AFATINIB (5 nM), 1 ± 0.029; in the experiment with AFATINIB (10 nM), 1 ± 0.044; with AFATINIB (50 nM), 1.03 ± 0.039; with AFATINIB (100 nM), 1.08 ± 0.013. For the same test system, the surviving fraction was determined as 1.02 ± 0.03 with AFATINIB (500 nM); 0.855 ± 0.085 with AFATINIB (1000 nM); 0.943 ± 0.015 in the experiment with TIOGUANINE (0.5 nM); 0.951 ± 0.017 in the experiment with TIOGUANINE (1 nM); 0.967 ± 0.0017 with TIOGUANINE (5 nM); 0.933 ± 0.027 with TIOGUANINE (10 nM). Moreover, the surviving fraction with TIOGUANINE (50 nM) came out at 1 ± 0.024; in the experiment with TIOGUANINE (100 nM), 1.01 ± 0.033; in the experiment with TIOGUANINE (500 nM), 1.002 ± 0.0066; with TIOGUANINE (1000 nM), 0.955 ± 0.032.
Consider HMT3552 BREAST, for which the surviving fraction in the experiment with AFATINIB (0.5 nM) was 0.823; with AFATINIB (1 nM), 0.878; with AFATINIB (5 nM), 0.885; with AFATINIB (10 nM), 0.727; in the experiment with AFATINIB (50 nM) it was 0.904; in the experiment with AFATINIB (100 nM) it was 0.881. In addition, the surviving fraction in the experiment with AFATINIB (500 nM) is 0.593; with AFATINIB (1000 nM), 0.278; with TIOGUANINE (0.5 nM), 1.11; with TIOGUANINE (1 nM), 1.06; with TIOGUANINE (5 nM) it was 1.05; with TIOGUANINE (10 nM), 1.04. Besides, the surviving fraction turned out to be 1.05 with TIOGUANINE (50 nM), 1.12 with TIOGUANINE (100 nM), 0.591 with TIOGUANINE (500 nM) and 0.38 in the experiment with TIOGUANINE (1000 nM).
As to NY BONE, the surviving fraction with AFATINIB (0.5 nM) worked out at 0.991 ± 0.051; with AFATINIB (1 nM) it was 0.983 ± 0.013; with AFATINIB (5 nM), 1.02 ± 0.062; in the experiment with AFATINIB (10 nM) it was 1.038 ± 0.008; with AFATINIB (50 nM) it was 1.03 ± 0.053; with AFATINIB (100 nM), 0.996 ± 0.017. The surviving fraction with AFATINIB (500 nM) amounted to 0.683 ± 0.029; in the experiment with AFATINIB (1000 nM), 0.392 ± 0.017; with TIOGUANINE (0.5 nM) it was 0.936 ± 0.013; with TIOGUANINE (1 nM), 0.955 ± 0.017; with TIOGUANINE (5 nM), 1.01 ± 0.022; with TIOGUANINE (10 nM) it was 0.972 ± 0.015. The surviving fraction with TIOGUANINE (50 nM) stood at 1.02 ± 0.049; in the experiment with TIOGUANINE (100 nM) it was 1.01 ± 0.029; with TIOGUANINE (500 nM) it was 0.946 ± 0.025; with TIOGUANINE (1000 nM), 0.902 ± 0.039.
For KPD BONE, the surviving fraction with AFATINIB (0.5 nM) is 0.964 ± 0.051; in the experiment with AFATINIB (1 nM) it was 0.978 ± 0.045; with AFATINIB (5 nM), 1.04 ± 0.066; with AFATINIB (10 nM), 0.976 ± 0.051; with AFATINIB (50 nM) it was 1.08 ± 0.06; with AFATINIB (100 nM) it was 0.888 ± 0.034. Also, the surviving fraction was determined as 0.65 ± 0.056 with AFATINIB (500 nM); 0.354 ± 0.014 in the experiment with AFATINIB (1000 nM); 0.998 ± 0.045 with TIOGUANINE (0.5 nM); 0.985 ± 0.098 in the experiment with TIOGUANINE (1 nM); 0.989 ± 0.049 with TIOGUANINE (5 nM); 1 ± 0.047 in the experiment with TIOGUANINE (10 nM). For the same test system, the surviving fraction turned out to be 1.03 ± 0.084 in the experiment with TIOGUANINE (50 nM), 1.05 ± 0.027 in the experiment with TIOGUANINE (100 nM), 1.03 ± 0.019 in the experiment with TIOGUANINE (500 nM) and 0.993 ± 0.059 with TIOGUANINE (1000 nM).
As to G292 BONE, the surviving fraction with AFATINIB (0.5 nM) was 1 ± 0.064; with AFATINIB (1 nM), 0.998 ± 0.029; in the experiment with AFATINIB (5 nM), 1.07 ± 0.027; in the experiment with AFATINIB (10 nM) it was 0.995 ± 0.037; with AFATINIB (50 nM) it was 1.03 ± 0.02; with AFATINIB (100 nM) it was 0.982 ± 0.028. Also, the surviving fraction in the experiment with AFATINIB (500 nM) was determined as 0.717 ± 0.032; with AFATINIB (1000 nM), 0.447 ± 0.027; with TIOGUANINE (0.5 nM) it was 0.964 ± 0.034; with TIOGUANINE (1 nM), 0.998 ± 0.045; in the experiment with TIOGUANINE (5 nM), 1 ± 0.021; with TIOGUANINE (10 nM), 0.984 ± 0.036. Moreover, the surviving fraction with TIOGUANINE (50 nM) was 1.01 ± 0.023; in the experiment with TIOGUANINE (100 nM) it was 1.02 ± 0.016; with TIOGUANINE (500 nM) it was 0.948 ± 0.011; with TIOGUANINE (1000 nM), 0.949 ± 0.035.
